According to PubChem BioAssay AID2060910 (Molecular Pharmacology Branch, DTP, NCI, 2025):
Blank lines part the entries; values can stand above or below the compound they belong to.

System: 242566-281-R-J2-PDC complex spheroid viability
Assay: Anticancer human tumor 242566-281-R-J2-PDC patient-derived pancreatic carcinoma cell line growth inhibition [RAS]
Conditions: for IC50: curve of first compound; for viability, T/C: stronger effect = lower value
Procedure, shortened: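 Multi-cell-type spheroids: tumor cells plus HUVEC endothelial cells and mesenchymal stem cells. RAS-pathway inhibitors were combined with targeted agents, each dosed in half-log steps down from clinical Cmax, or from 10 microM when Cmax was unknown.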

[1] = second compound 0.000949 µM, first compound 0.0316 µM
[2] = second compound 0.000949 µM, first compound 0.1 µM
[3] = second compound 0.000949 µM, first compound 0.316 µM
[4] = second compound 0.000949 µM, first compound 1 µM
[5] = second compound 0.003 µM, first compound 0.0316 µM
[6] = second compound 0.003 µM, first compound 0.1 µM
[7] = second compound 0.003 µM, first compound 0.316 µM
[8] = second compound 0.003 µM, first compound 1 µM
[9] = second compound 0.00949 µM, first compound 0.0316 µM
[10] = second compound 0.00949 µM, first compound 0.1 µM
[11] = second compound 0.00949 µM, first compound 0.316 µM
[12] = second compound 0.00949 µM, first compound 1 µM
[13] = second compound 0.03 µM, first compound 0.0316 µM
[14] = second compound 0.03 µM, first compound 0.1 µM
[15] = second compound 0.03 µM, first compound 0.316 µM
[16] = second compound 0.03 µM, first compound 1 µM
[17] = second compound 0.0949 µM, first compound 0.0316 µM
[18] = second compound 0.0949 µM, first compound 0.1 µM
[19] = second compound 0.0949 µM, first compound 0.316 µM
[20] = second compound 0.0949 µM, first compound 1 µM
[21] = second compound 0.3 µM, first compound 0.0316 µM
[22] = second compound 0.3 µM, first compound 0.1 µM
[23] = second compound 0.3 µM, first compound 0.316 µM
[24] = second compound 0.3 µM, first compound 1 µM
[25] = second compound 0.000949 µM, first compound 0.00316 µM
[26] = second compound 0.000949 µM, first compound 0.01 µM
[27] = second compound 0.003 µM, first compound 0.00316 µM
[28] = second compound 0.003 µM, first compound 0.01 µM
[29] = second compound 0.00949 µM, first compound 0.00316 µM
[30] = second compound 0.00949 µM, first compound 0.01 µM
[31] = second compound 0.03 µM, first compound 0.00316 µM
[32] = second compound 0.03 µM, first compound 0.01 µM
[33] = second compound 0.0949 µM, first compound 0.00316 µM
[34] = second compound 0.0949 µM, first compound 0.01 µM
[35] = second compound 0.3 µM, first compound 0.00316 µM
[36] = second compound 0.3 µM, first compound 0.01 µM
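Also: spheroids exposed to compound for 7 days before readout.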
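For viability, T/C in this document: 100% = DMSO vehicle control wells.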

IC50 (second compound 0.0316 µM): 2610 nM
IC50 (second compound 0.1 µM): 1890 nM
IC50 (second compound 0.316 µM): 1450 nM
IC50 (second compound 1 µM): 893 nM
IC50 (second compound 3.16 µM): 1220 nM
IC50 (second compound 10 µM): 1170 nM
Structure (SMILES): CCC(CC)c1cc(NC2CCC(N)C2)n2nccc2n1 (stereo not drawn) + C#Cc1c(F)ccc2cc(O)cc(-c3ncc4c(N5CC6CCC(C5)N6)nc(OCC56CCCN5CC(F)C6)nc4c3F)c12
viability, T/C (second compound 0.0316 µM, first compound 0.0316 µM): 85.9%
viability, T/C (second compound 0.0316 µM, first compound 0.1 µM): 109%
viability, T/C (second compound 0.0316 µM, first compound 0.316 µM): 107%
viability, T/C (second compound 0.0316 µM, first compound 1 µM): 88.9%
viability, T/C (second compound 0.0316 µM, first compound 3.16 µM): 42.2%
viability, T/C (second compound 0.0316 µM, first compound 10 µM): 1.05%
viability, T/C (second compound 0.1 µM, first compound 0.0316 µM): 79.1%
viability, T/C (second compound 0.1 µM, first compound 0.1 µM): 92.1%
viability, T/C (second compound 0.1 µM, first compound 0.316 µM): 84.7%
viability, T/C (second compound 0.1 µM, first compound 1 µM): 69.3%
viability, T/C (second compound 0.1 µM, first compound 3.16 µM): 33.9%
viability, T/C (second compound 0.1 µM, first compound 10 µM): 0.89%
viability, T/C (second compound 0.316 µM, first compound 0.0316 µM): 83.6%
viability, T/C (second compound 0.316 µM, first compound 0.1 µM): 85.5%
viability, T/C (second compound 0.316 µM, first compound 0.316 µM): 73.3%
viability, T/C (second compound 0.316 µM, first compound 1 µM): 63.4%
viability, T/C (second compound 0.316 µM, first compound 3.16 µM): 26.3%
viability, T/C (second compound 0.316 µM, first compound 10 µM): 0.98%
viability, T/C (second compound 1 µM, first compound 0.0316 µM): 68.2%
viability, T/C (second compound 1 µM, first compound 0.1 µM): 67.6%
viability, T/C (second compound 1 µM, first compound 0.316 µM): 58.5%
viability, T/C (second compound 1 µM, first compound 1 µM): 50.6%
viability, T/C (second compound 1 µM, first compound 3.16 µM): 14.8%
viability, T/C (second compound 1 µM, first compound 10 µM): 0.85%
viability, T/C (second compound 3.16 µM, first compound 0.0316 µM): 58%
viability, T/C (second compound 3.16 µM, first compound 0.1 µM): 60.2%
viability, T/C (second compound 3.16 µM, first compound 0.316 µM): 56.1%
viability, T/C (second compound 3.16 µM, first compound 1 µM): 58.6%
viability, T/C (second compound 3.16 µM, first compound 3.16 µM): 11.1%
viability, T/C (second compound 3.16 µM, first compound 10 µM): 0.86%
viability, T/C (second compound 10 µM, first compound 0.0316 µM): 59.8%
viability, T/C (second compound 10 µM, first compound 0.1 µM): 54.8%
viability, T/C (second compound 10 µM, first compound 0.316 µM): 52.3%
viability, T/C (second compound 10 µM, first compound 1 µM): 58.1%
viability, T/C (second compound 10 µM, first compound 3.16 µM): 11.5%
viability, T/C (second compound 10 µM, first compound 10 µM): 0.55%

IC50 (second compound 0.000949 µM): 2280 nM
IC50 (second compound 0.003 µM): 2040 nM
IC50 (second compound 0.00949 µM): 3210 nM
IC50 (second compound 0.03 µM): 1850 nM
IC50 (second compound 0.0949 µM): 1120 nM
IC50 (second compound 0.3 µM): 329 nM
Structure (SMILES): NC1c2ccccc2OC12CCN(c1cnc3c(N4CCCc5ncccc54)n[nH]c3n1)CC2 (stereo not drawn) + CCn1c(-c2cccnc2C(C)OC)c2c3cc(ccc31)N1CCOC(CC(NC(=O)C(C(C)C)N(C)C(=O)C3(F)CCN(C(=O)C#CC(C)(C)N(C)C)CC3)C(=O)N3CCCC(N3)C(=O)OCC(C)(C)C2)C1
viability, T/C [1]: 89.6%
viability, T/C [2]: 80.3%
viability, T/C [3]: 54.3%
viability, T/C [4]: 64.5%
viability, T/C (second compound 0.000949 µM, first compound 3.16 µM): 57.4%
viability, T/C (second compound 0.000949 µM, first compound 10 µM): 28.6%
viability, T/C [5]: 92.4%
viability, T/C [6]: 76.2%
viability, T/C [7]: 62.7%
viability, T/C [8]: 62.4%
viability, T/C (second compound 0.003 µM, first compound 3.16 µM): 54.4%
viability, T/C (second compound 0.003 µM, first compound 10 µM): 25.5%
viability, T/C [9]: 82.3%
viability, T/C [10]: 77.1%
viability, T/C [11]: 69.1%
viability, T/C [12]: 64.6%
viability, T/C (second compound 0.00949 µM, first compound 3.16 µM): 51.9%
viability, T/C (second compound 0.00949 µM, first compound 10 µM): 28.3%
viability, T/C [13]: 91%
viability, T/C [14]: 81.3%
viability, T/C [15]: 69.8%
viability, T/C [16]: 59.6%
viability, T/C (second compound 0.03 µM, first compound 3.16 µM): 41.1%
viability, T/C (second compound 0.03 µM, first compound 10 µM): 36.8%
viability, T/C [17]: 75.1%
viability, T/C [18]: 71.7%
viability, T/C [19]: 62%
viability, T/C [20]: 55%
viability, T/C (second compound 0.0949 µM, first compound 3.16 µM): 33.3%
viability, T/C (second compound 0.0949 µM, first compound 10 µM): 26.5%
viability, T/C [21]: 68.2%
viability, T/C [22]: 56.4%
viability, T/C [23]: 52.8%
viability, T/C [24]: 38.9%
viability, T/C (second compound 0.3 µM, first compound 3.16 µM): 33.5%
viability, T/C (second compound 0.3 µM, first compound 10 µM): 21.1%

IC50 (second compound 0.000949 µM): > 1000 nM
IC50 (second compound 0.003 µM): > 1000 nM
IC50 (second compound 0.00949 µM): < 3.16 nM
IC50 (second compound 0.03 µM): < 3.16 nM
IC50 (second compound 0.0949 µM): < 3.16 nM
IC50 (second compound 0.3 µM): < 3.16 nM
Structure (SMILES): CCN1CCN(Cc2ccc(Nc3ncc(F)c(-c4cc(F)c5nc(C)n(C(C)C)c5c4)n3)nc2)CC1 + CCn1c(-c2cc(N3CCN(C)CC3)cnc2C(C)OC)c2c3cc(ccc31)-c1csc(n1)CC(NC(=O)C1CC1C)C(=O)N1CCCC(N1)C(=O)OCC(C)(C)C2
viability, T/C [25]: 88.6%
viability, T/C [26]: 88.5%
viability, T/C [1]: 69.9%
viability, T/C [2]: 76%
viability, T/C [3]: 90.5%
viability, T/C [4]: 83.7%
viability, T/C [27]: 81.9%
viability, T/C [28]: 67.8%
viability, T/C [5]: 58.8%
viability, T/C [6]: 63.8%
viability, T/C [7]: 71.8%
viability, T/C [8]: 56.1%
viability, T/C [29]: 53.8%
viability, T/C [30]: 38.4%
viability, T/C [9]: 43.2%
viability, T/C [10]: 39.6%
viability, T/C [11]: 42.9%
viability, T/C [12]: 48.1%
viability, T/C [31]: 27.8%
viability, T/C [32]: 31.3%
viability, T/C [13]: 29.7%
viability, T/C [14]: 30.9%
viability, T/C [15]: 29.2%
viability, T/C [16]: 40.9%
viability, T/C [33]: 22%
viability, T/C [34]: 22.1%
viability, T/C [17]: 20.8%
viability, T/C [18]: 22%
viability, T/C [19]: 22%
viability, T/C [20]: 31.6%
viability, T/C [35]: 19.2%
viability, T/C [36]: 18.9%
viability, T/C [21]: 19.1%
viability, T/C [22]: 20.3%
viability, T/C [23]: 22.4%
viability, T/C [24]: 32.7%

IC50 (second compound 0.000949 µM): > 1000 nM
IC50 (second compound 0.003 µM): > 1000 nM
IC50 (second compound 0.00949 µM): > 1000 nM
IC50 (second compound 0.03 µM): > 1000 nM
IC50 (second compound 0.0949 µM): 983 nM
IC50 (second compound 0.3 µM): 754 nM
Structure (SMILES): C=CC(=O)Nc1cc(Nc2nccc(-c3cn(C)c4ccccc34)n2)c(OC)cc1N(C)CCN(C)C + CCn1c(-c2cccnc2C(C)OC)c2c3cc(ccc31)N1CCOC(CC(NC(=O)C(C(C)C)N(C)C(=O)C3(F)CCN(C(=O)C#CC(C)(C)N(C)C)CC3)C(=O)N3CCCC(N3)C(=O)OCC(C)(C)C2)C1
viability, T/C [25]: 87.8%
viability, T/C [26]: 107%
viability, T/C [1]: 82.5%
viability, T/C [2]: 91%
viability, T/C [3]: 86.7%
viability, T/C [4]: 50.3%
viability, T/C [27]: 131%
viability, T/C [28]: 95%
viability, T/C [5]: 92.2%
viability, T/C [6]: 84.3%
viability, T/C [7]: 89.8%
viability, T/C [8]: 47.2%
viability, T/C [29]: 119%
viability, T/C [30]: 95.8%
viability, T/C [9]: 82.8%
viability, T/C [10]: 102%
viability, T/C [11]: 77.4%
viability, T/C [12]: 51.1%
viability, T/C [31]: 97.6%
viability, T/C [32]: 95.3%
viability, T/C [13]: 99.1%
viability, T/C [14]: 93.6%
viability, T/C [15]: 66%
viability, T/C [16]: 52.2%
viability, T/C [33]: 98.5%
viability, T/C [34]: 98.7%
viability, T/C [17]: 99.2%
viability, T/C [18]: 83.5%
viability, T/C [19]: 61.3%
viability, T/C [20]: 49.5%
viability, T/C [35]: 94.9%
viability, T/C [36]: 86.9%
viability, T/C [21]: 78%
viability, T/C [22]: 70.4%
viability, T/C [23]: 56.5%
viability, T/C [24]: 47.8%
